Data on one compound can be found in PMC4340362 (ACS Chemical Biology, 2014).

Structures are written as SMILES. Like-named read-outs stand apart in the source and are kept apart here.

The assay relates to MDA-MB-231 breast cancer cells. The assay is described as follows: Quantitative scratch-wound. The following applies: Homo sapiens. The class given is cell-based.

Turning to `C[C@@H]1O[C@@H](O[C@H]2C[C@@H](O)[C@]3(CO)[C@H]4[C@H](O)C[C@]5(C)[C@@H](C6=CC(=O)OC6)CC[C@]5(O)[C@@H]4CC[C@]3(O)C2)[C@H](O)[C@H](O)[C@H]1O` [Compound 1, ouabain], the IC50 by setting is: (MDA-MB-231, read-out: Cell migration IC50) 173 nM; (MDA-MB-231, read-out: cell migration) 173 nM.
